Measured values taken from patent US7176224B2, “Oxazolyl-aryloxyacetic acid derivatives and their use as PPAR agonists” (Eli Lilly and Company, priority 2000, dated 2007).

Columns and labels:
Hu apoAI transgenic mice = assay: Evaluation of triglyceride and cholesterol levels in hu apoAI transgenic mice; assay type: in vivo
Protocol: Five to six week old male mice, transgenic for human apoAI [C57B1/6-tgn(apoa1) 1rub, Jackson Laboratory, Bar Harbor, Me.] were housed five per cage (10″×20″8″ with aspen chip bedding) with food (Purina 5001) and water available at all times. After an acclimation period of 2 weeks, animals were individually identified by ear notches, weighed, and assigned to groups based on body weight. Beginning the following morning, mice were dosed daily by oral gavage for 7 days using a 20 gauge, 1½″ curved disposable feeding needle (Popper & Sons). Treatments were test compounds (30 mg/kg), a positive control (fenofibrate, 100 mg/kg) or vehicle [1% carboxymethylcellulose (w/v)/0.25% Tween80 (w/v); 0.2 ml/mouse]. Prior to termination on day 7, mice were weighed and dosed. Three hours after dosing, animals were anesthetized by inhalation of isoflurane (2–4%; Abbott Laboratories, Chicago, Ill.) and blood obtained via cardiac puncture (0.7–1.0 ml). Whole blood was transferred to serum separator tubes (Vacutainer SST), chilled on ice, and permitted to clot. Serum was obtained after centrifugation at 4° C. and frozen until analysis for triglycerides, total cholesterol, compound levels, and serum lipoprotein profile by fast protein liquid chromatography (FPLC) coupled to an inline detection system. After sacrifice by cervical dislocation, the liver, heart and epididymal fat pads were excised and weighed.
The animals dosed with vehicle had average triglycerides values of 60–80 mg/dl, which were reduced by the positive control fenofibrate (33–58 mg/dl with a mean reduction of 37%). The animals dosed with vehicle had average total serum cholesterol values of 140–180 mg/dl, which were increased by fenofibrate (190–280 mg/dl, with a mean elevation of 41%). […] increased the amount of HDLc (68–96 v-sec with a mean percent increase of 48%).
Glucose was measured colorimetrically using commercially purchased reagents (Sigma #315-500). According to the manufacturers, the procedures were modified from published work (McGowan, M. W., Artiss, J. D., Strandbergh, D. R. & Zak, B. Clin Chem, 20:470–5 (1974) and Keston, A. Specific colorimetric enzymatic analytical reagents for glucose. Abstract of papers 129th Meeting ACS, 31C (1956).); and depend on the release of a mole of hydrogen peroxide for each mole of analyte, coupled with a color reaction first described by Trinder (Trinder, P. Determination of glucose in blood using glucose oxidase with an alternative oxygen acceptor. Ann Clin Biochem, 6:24 (1969)). The absorbance of the dye produced is linearly related to the analyte in the sample. The assays were further modified in our laboratory for use in a 96 well format. Standards (Sigma #339-11, Sigma #16-11, and Sigma #CC0534 for glucose, triglycerides and total cholesterol, respectively), quality control plasma (Sigma # A2034), and samples (2 or 5 μl/well) were measured in duplicate using 200 μl of reagent. An additional aliquot of sample, pipetted to a third well and diluted in 200 μl water, provided a blank for each specimen. Plates were incubated at room temperature (18, 15, and 10 minutes for glucose, triglycerides and total cholesterol, respectively) on a plate shaker (DPC Micormix 5) and absorbance read at 500 nm (glucose and total cholesterol) or 540 nm (triglycerides) on a plate reader (Wallac Victor 1420). Sample absorbances were compared to a standard curve (100–800, 10–500, and 100–400 mg/dl for glucose, triglycerides and total cholesterol, respectively). Values for the quality control sample were always within the expected range and the coefficient of variation for samples was below 10%. All samples from an experiment were assayed at the same time to minimize inter-assay variability.
Serum lipoproteins were separated and cholesterol quantitated with an in-line detection system. Sample was applied to a Superose® 6 HR 10/30 size exclusion column (Amersham Pharmacia Biotech) and eluted with phosphate buffered saline-EDTA at 0.5 ml/min. […]

huPPARα [1] = target: T1, huPPARα (Homo sapiens, UniProt Q07869); assay: DNA-dependent binding (ABCD binding), SPA, radioligand displacement; conditions: tritium-labeled PPARα agonist radioligand
T1 sequence (Q07869 1-468): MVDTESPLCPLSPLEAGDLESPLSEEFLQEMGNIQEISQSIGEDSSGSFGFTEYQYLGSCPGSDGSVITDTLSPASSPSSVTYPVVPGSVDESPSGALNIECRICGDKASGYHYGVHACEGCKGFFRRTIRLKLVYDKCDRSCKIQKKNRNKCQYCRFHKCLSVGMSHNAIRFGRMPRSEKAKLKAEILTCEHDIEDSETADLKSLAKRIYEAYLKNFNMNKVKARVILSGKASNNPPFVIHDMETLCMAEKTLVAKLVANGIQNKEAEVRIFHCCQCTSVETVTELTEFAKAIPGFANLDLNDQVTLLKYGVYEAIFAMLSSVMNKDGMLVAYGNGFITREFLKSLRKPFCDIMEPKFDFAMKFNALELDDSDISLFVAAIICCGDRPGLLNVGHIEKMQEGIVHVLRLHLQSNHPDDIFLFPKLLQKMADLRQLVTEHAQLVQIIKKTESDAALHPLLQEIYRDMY
T1 sequence (P19793 1-462 partner): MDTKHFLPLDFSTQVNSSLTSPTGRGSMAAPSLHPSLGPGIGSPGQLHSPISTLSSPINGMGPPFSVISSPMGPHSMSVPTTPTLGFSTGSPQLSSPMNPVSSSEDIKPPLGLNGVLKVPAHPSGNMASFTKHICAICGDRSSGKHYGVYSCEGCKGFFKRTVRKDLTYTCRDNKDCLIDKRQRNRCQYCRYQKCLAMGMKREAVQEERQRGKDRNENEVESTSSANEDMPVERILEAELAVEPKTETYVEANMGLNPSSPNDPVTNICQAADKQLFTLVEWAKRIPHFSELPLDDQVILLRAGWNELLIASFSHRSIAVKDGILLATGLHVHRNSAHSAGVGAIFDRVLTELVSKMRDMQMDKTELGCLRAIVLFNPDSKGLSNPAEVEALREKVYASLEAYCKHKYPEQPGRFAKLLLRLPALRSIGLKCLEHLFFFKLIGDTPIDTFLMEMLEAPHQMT
Protocol: (§1) […] binding (ABCD binding) was carried out using SPA technology with PPAR receptors. Tritium-labeled PPARα and PPARγ agonists were used as radioligands for generating displacement curves and IC50 values with compounds of the invention. Cotransfection assays were carried out in CV-1 cells. The reporter plasmid contained an acylCoA oxidase (AOX) PPRE and TK promoter upstream of the luciferase reporter cDNA. Appropriate PPARs and RXRα were constitutively expressed using plasmids containing the CMV promoter. […] In order to eliminate such interference, a GAL4 chimeric system was used in which the DNA binding domain of the transfected PPAR was replaced by that of GAL4, and the GAL4 response element was utilized in place of the AOX PPRE. Cotransfection efficacy was determined relative to PPARα agonist and PPARβ agonist reference molecules. Efficacies were determined by computer fit to a concentration-response curve, or in some cases at a single high concentration of agonist (10 μM). For binding or cotransfection studies with receptors other than PPARs, similar assays were carried out using appropriate ligands, receptors, reporter constructs, etc., for that particular receptor.
(§2) These studies were carried out to evaluate the ability of compounds of the invention to bind to and/or activate various nuclear transcription factors, particularly huPPARα (“hu” indicates “human”) and huPPARγ. These studies provide in vitro data concerning efficacy and selectivity of compounds of the invention. Furthermore, binding and cotransfection data for compounds of the invention were compared with corresponding data for marketed compounds that act on either huPPARα or huPPARγ.

huPPARγ [2] = target: T2, huPPARγ (Homo sapiens, UniProt P37231); assay: as above; conditions: tritium-labeled PPARγ agonist radioligand
T2 sequence (P37231 1-505): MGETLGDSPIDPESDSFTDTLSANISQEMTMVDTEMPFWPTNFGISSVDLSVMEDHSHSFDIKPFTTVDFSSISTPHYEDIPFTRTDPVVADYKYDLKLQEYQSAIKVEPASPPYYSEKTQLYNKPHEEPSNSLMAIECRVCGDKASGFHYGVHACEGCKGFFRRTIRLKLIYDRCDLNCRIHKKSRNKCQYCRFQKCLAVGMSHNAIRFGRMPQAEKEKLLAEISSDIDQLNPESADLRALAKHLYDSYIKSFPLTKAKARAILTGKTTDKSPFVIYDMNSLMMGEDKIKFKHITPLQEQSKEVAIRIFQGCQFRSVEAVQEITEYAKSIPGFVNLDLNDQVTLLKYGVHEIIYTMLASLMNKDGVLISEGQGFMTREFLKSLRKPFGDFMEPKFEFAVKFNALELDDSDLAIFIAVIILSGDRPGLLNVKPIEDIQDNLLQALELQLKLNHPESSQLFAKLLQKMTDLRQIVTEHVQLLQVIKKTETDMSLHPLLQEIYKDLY
T2 sequence (P19793 1-462 partner): T1 sequence (P19793 1-462 partner)
Protocol: as §1, §2

huPPARα [3] = assay: Cotransfection assay in CV-1 cells, luciferase reporter; assay type: cell-based, human; conditions: GAL4 chimeric system, relative to PPARα agonist reference molecule
Protocol: […] binding (ABCD binding) was carried out using SPA technology with PPAR receptors. Tritium-labeled PPARα and PPARγ agonists were used as radioligands for generating displacement curves and IC50 values with compounds of the invention. Cotransfection assays were carried out in CV-1 cells. The reporter plasmid contained an acylCoA oxidase (AOX) PPRE and TK promoter upstream of the luciferase reporter cDNA. Appropriate PPARs and RXRα were constitutively expressed using plasmids containing the CMV promoter. For PPARα and […], interference by endogenous […] in CV-1 cells was an issue. In order to eliminate such interference, a GAL4 chimeric system was used in which the DNA binding domain of the transfected PPAR was replaced by that of GAL4, and the GAL4 response element was utilized in place of the AOX PPRE. Cotransfection efficacy was determined relative to PPARα agonist and […] reference molecules. Efficacies were determined by computer fit to a concentration-response curve, or in some cases at a single high concentration of agonist (10 μM). For binding or cotransfection studies with receptors other than PPARs, similar assays were carried out using appropriate ligands, receptors, reporter constructs, etc., for that particular receptor.
as §2

huPPARγ [4] = assay: as above; assay type: cell-based, human; conditions: GAL4 chimeric system, relative to agonist reference molecule
Protocol: as §1, with “Tritium-labeled PPARα and PPARγ agonists were used as radioligands for generating displacement curves and IC50 values with compounds of the invention.” left out, “Cotransfection efficacy was determined relative to PPARα agonist and PPARβ agonist reference molecules.” left out
as §2

[5] = 100 mg/kg oral gavage daily for 7 days, versus vehicle

Row | SMILES | IC50 (huPPARα [1]) | IC50 (huPPARγ [2]) | huPPARα CTF Efficacy (huPPARα [3]) | huPPARγ CTF Efficacy (huPPARγ [4]) | other results
1 | Cc1oc(-c2cccc(-c3ccsc3)c2)nc1CCOc1ccc(CC(C)(Oc2ccc(C(C)(C)C)cc2)C(=O)O)cc1 (stereo not drawn) [Example 19, 2-Methyl-3-(4-{2-[5-methyl-2-(3-thiophen-3-yl-phenyl)-oxazol-4-yl]-ethoxy}-phenyl)-2-(4-tert-butylphenoxy)-propionic acid] |  |  |  |  | % HDLc Increase (Hu apoAI transgenic mice; 30 mg/kg oral gavage daily for 7 days, serum HDLc FPLC area under the curve, over mice receiving vehicle): 85.3%
2 | COc1cccc(OC(C)(Cc2ccc(OCCc3nc(-c4ccc(-c5ccccc5)cc4)oc3C)cc2)C(=O)O)c1 (stereo not drawn) [Example 56, 3-{4-[2-(2-Biphenyl-4-yl-5-methyl-oxazol-4-yl)-ethoxy]-phenyl}-2-(3-methoxy-phenoxy)-2-methyl-propionic acid] | 613 nM | 99 nM | 70% | 88% | 
3 | Cc1oc(-c2cccc(-c3ccccc3)c2)nc1CCOc1ccc(CC(C)(Oc2ccc3c(c2)OCO3)C(=O)O)cc1 (stereo not drawn) [Example 58, 2-(Benzo[1,3]dioxol-5-yloxy)-3-{4-[2-(2-biphenyl-3-yl-5-methyl-oxazol-4-yl)-ethoxy]-phenyl}-2-methyl-propionic acid] | 145 nM | 37 nM | 48% | 101% | 
4 | CC(C)OC(=O)C(C)(C)Oc1ccc(C(=O)c2ccc(Cl)cc2)cc1 [fenofibrate] |  |  |  |  | high density lipoprotein cholesterol (HDLc) peak area (Hu apoAI transgenic mice; 100 mg/kg oral gavage daily for 7 days, pooled sera, FPLC, vehicle 47 to 62 v-sec): 68–96 v-sec; average triglycerides values (Hu apoAI transgenic mice; 100 mg/kg oral gavage daily for 7 days, serum, vehicle 60–80 mg/dl): 33 to 58 mg/dL; average total serum cholesterol values (Hu apoAI transgenic mice; 100 mg/kg oral gavage daily for 7 days, vehicle 140–180 mg/dl): 190 to 280 mg/dL; mean elevation of total serum cholesterol (Hu apoAI transgenic mice; [5]): 41%; mean percent increase of HDLc (Hu apoAI transgenic mice; [5]): 48%; mean reduction of triglycerides (Hu apoAI transgenic mice; [5]): 37%
